The results in this text go back to US12516039B2, “N-linked isoquinoline amides as LRRK2 inhibitors, pharmaceutical compositions, and uses thereof” (Merck Sharp & Dohme LLC, priority 2020, dated 2026).

The assay deals with T1, GST-tagged truncated human mutant G2019S LRRK2 (Homo sapiens, UniProt Q5S007, G2019S).
T1 construct: GST-tagged truncated human mutant G2019S LRRK2; purchased Life Technologies Corporation (Carlsbad, CA)
The assay is described as follows: LRRK2 G2019S Km ATP LanthaScreen assay. Type of assay: biochemical. The following applies: 134 μM ATP (Km ATP), LRRKtide substrate, mean of several tests; for IC50: read-out: LRRK2 pIC50 (converted). The method, boiled down:
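IC50 values are means of repeat runs, fitted with a 4-parameter logistic to the 520/495 nm TR-FRET ratio from a Tb-labeled anti-phospho-LRRKtide antibody added with EDTA. Reactions ran 90 min at room temperature at Km ATP (134 μM) with fluorescein-LRRKtide, after 15-min compound preincubation with truncated GST-tagged G2019S LRRK2.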
(Time-resolved FRET reads energy transfer from a long-lived donor to a nearby acceptor.)

T1 sequence (Q5S007 970-2527 G2019S limits assumed): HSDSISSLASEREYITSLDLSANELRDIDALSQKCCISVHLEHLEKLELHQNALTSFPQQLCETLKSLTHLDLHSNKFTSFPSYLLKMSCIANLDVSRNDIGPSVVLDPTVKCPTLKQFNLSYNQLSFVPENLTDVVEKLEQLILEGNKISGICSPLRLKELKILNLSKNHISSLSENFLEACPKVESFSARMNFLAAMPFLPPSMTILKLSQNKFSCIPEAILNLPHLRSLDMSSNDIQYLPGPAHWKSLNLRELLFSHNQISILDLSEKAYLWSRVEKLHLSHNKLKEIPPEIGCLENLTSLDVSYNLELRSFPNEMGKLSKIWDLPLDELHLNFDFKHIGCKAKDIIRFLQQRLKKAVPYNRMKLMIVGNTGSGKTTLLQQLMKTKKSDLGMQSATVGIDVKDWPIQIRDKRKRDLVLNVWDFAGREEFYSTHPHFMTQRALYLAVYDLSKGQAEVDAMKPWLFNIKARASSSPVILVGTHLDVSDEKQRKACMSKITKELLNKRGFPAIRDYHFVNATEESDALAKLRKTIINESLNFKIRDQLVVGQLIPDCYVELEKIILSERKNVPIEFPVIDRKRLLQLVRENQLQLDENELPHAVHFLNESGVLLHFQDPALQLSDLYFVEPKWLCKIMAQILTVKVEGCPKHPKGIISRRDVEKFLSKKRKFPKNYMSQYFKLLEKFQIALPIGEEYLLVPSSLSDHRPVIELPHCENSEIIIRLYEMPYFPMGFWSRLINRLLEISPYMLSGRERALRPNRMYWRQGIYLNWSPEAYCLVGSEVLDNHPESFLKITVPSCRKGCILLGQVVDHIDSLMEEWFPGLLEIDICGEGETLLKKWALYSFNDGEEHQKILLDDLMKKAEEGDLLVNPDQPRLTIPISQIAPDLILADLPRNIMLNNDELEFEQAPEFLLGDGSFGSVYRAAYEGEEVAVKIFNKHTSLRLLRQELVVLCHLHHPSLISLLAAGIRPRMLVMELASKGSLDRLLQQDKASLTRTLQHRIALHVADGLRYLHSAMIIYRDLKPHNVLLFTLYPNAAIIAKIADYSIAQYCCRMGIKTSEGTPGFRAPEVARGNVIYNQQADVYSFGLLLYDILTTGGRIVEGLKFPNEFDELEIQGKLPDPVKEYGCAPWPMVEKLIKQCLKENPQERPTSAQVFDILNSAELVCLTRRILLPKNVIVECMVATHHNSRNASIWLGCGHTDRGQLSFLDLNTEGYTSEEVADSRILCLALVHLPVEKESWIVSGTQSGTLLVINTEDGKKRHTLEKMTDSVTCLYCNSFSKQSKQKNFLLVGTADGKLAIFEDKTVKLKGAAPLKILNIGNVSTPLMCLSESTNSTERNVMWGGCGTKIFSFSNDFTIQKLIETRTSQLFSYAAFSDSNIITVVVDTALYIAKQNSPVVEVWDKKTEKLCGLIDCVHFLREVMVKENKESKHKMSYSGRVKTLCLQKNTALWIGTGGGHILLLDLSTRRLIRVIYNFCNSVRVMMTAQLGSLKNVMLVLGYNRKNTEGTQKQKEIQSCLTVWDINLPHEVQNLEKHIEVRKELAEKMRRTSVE

For `CC1(C2CCOC2)CC1C(=O)Nc1cc2cc(N3CCN(C4(C)COCC4O)CC3)c(Cl)cc2cn1` (single isomer, unassigned) [Ex-10.84, (1R,2R or 1S,2S, or 1R,2S, or 1S,2R)-N-[7-chloro-6-[4-((3R,4R or 3S,4S)-4-hydroxy-3-methyl-tetrahydrofuran-3-yl)piperazin-1-yl]-3-isoquinolyl]-2-methyl-2-tetrahydrofuran-3-yl-cyclopropanecarboxamide], the IC50 is 214 pM.

`COCC1CCC1C(=O)Nc1cc2cc(N3CCN(C4(C)COCC4O)CC3)c(Cl)cc2cn1` (single isomer, unassigned) [Ex-1.25, (1R,2S or 1R,2R, or 1S,2S, or 1S,2R)-N-(7-chloro-6-(4-((3R,4R)-4-hydroxy-3-methyltetrahydrofuran-3-yl)piperazin-1-yl)isoquinolin-3-yl)-2-(methoxymethyl)cyclobutane-1-carboxamide]: the IC50 is 158 pM.

On to `CC1(N2CCN(c3cc4cc(NC(=O)C5CC56CC6)ncc4cc3Cl)CC2)COCC1O` (single isomer, unassigned) [Ex-2.12, (R or S)-N-(7-chloro-6-(4-((3R,4R or 3S,4S)-4-hydroxy-3-methyltetrahydrofuran-3-yl)piperazin-1-yl)isoquinolin-3-yl)spiro[2.2]pentane-1-carboxamide], for which the IC50 is 513 pM.

Consider “(1R,2R or 1S,2S)-N-[6-[4-((3R,4R or 3S,4S)-4-fluoro-3-methyl-tetrahydrofuran-3-yl)piperazin-1-yl]-7-methyl-3-isoquinolyl]-2-(1-methylpyrazol-3-yl)cyclopropanecarboxamide [Ex-10.59]”, for which the “LRRK2 pIC50” value amounted to 10.09.

In the case of `CC1(C)CC2(CCO1)CC2C(=O)Nc1cc2cc(N3CCN(C4(C)COCC4O)CC3)c(Cl)cc2cn1` (single isomer, unassigned) [Ex-7.4], the IC50 was 776 pM.

On to `CC1(C)OCCC1C(=O)Nc1cc2cc(N3CCN(C4(C)COCC4O)CC3)c(Cl)cc2cn1` (single isomer, unassigned) [Ex-1.23, (R or S)-N-(7-chloro-6-(1-((3R,4R or 3S,4S)-4-hydroxy-3-methyltetrahydrofuran-3-yl)piperazin-4-yl)isoquinolin-3-yl)-2,2-dimethyltetrahydrofuran-3-carboxamide], for which the IC50 is 7410 pM.

Turning to `CC1(N2CCN(c3cc4cc(NC(=O)C5CC56CCOCC6)ncc4cc3Cl)CC2)COCC1C#N` (racemic) [Ex-18.1], the IC50 was 912 pM.

On to `CC1(C2CCOC2)CC1C(=O)Nc1cc2cc(N3CCN(C4(C)COCC4O)CC3)c(Cl)cc2cn1` (single isomer, unassigned) [Ex-10.81, (1R,2R or 1S,2S, or 1R,2S, or 1S,2R)-N-[7-chloro-6-[4-((3R,4R or 3S,4S)-4-hydroxy-3-methyl-tetrahydrofuran-3-yl)piperazin-1-yl]-3-isoquinolyl]-2-methyl-2-tetrahydrofuran-3-yl-cyclopropanecarboxamide], for which the IC50 was 81.3 pM.

For `COC1COCC1(C)N1CCN(c2cc3cc(NC(=O)C4CC45CCOCC5)ncc3cc2Cl)CC1` (single isomer, unassigned) [Ex-5.5], the IC50 is 2630 pM.

In the case of `CCC1(N2CCN(c3cc4cc(NC(=O)C5CC56CCOCC6)ncc4cc3Cl)CC2)COCC1O` (single isomer, unassigned) [Ex-2.22, (R or S)-N-(7-chloro-6-(4-((3R,4R or 3S,4S)-3-ethyl-4-hydroxytetrahydrofuran-3-yl)piperazin-1-yl)isoquinolin-3-yl)-6-oxaspiro[2.5]octane-1-carboxamide], the IC50 was 372 pM.

As to `CC1(N2CCN(c3cc4cc(NC(=O)C5CC5c5cccs5)ncc4cc3Cl)CC2)COCC1O` (single isomer, unassigned) [Ex-10.14, (1R,2R or 1R,2S)-N-[7-chloro-6-[4-((3R,4R or 3S,4S)-4-hydroxy-3-methyl-tetrahydrofuran-3-yl)piperazin-1-yl]-3-isoquinolyl]-2-(2-thienyl)cyclopropanecarboxamide], the IC50 is 4270 pM.

On to `Cc1cc2cnc(NC(=O)C3CC3c3cnn(C)c3C(F)(F)F)cc2cc1N1CCN(C2(C)CCOC2)CC1` (single isomer, unassigned) [Ex-10.35, (1R,2R or 1S,2S)-N-[7-methyl-6-[4-((R or S)-3-methyltetrahydrofuran-3-yl)piperazin-1-yl]-3-isoquinolyl]-2-[1-methyl-5-(trifluoromethyl)pyrazol-4-yl]cyclopropanecarboxamide], for which the IC50 was 1700 pM.

`CC1(N2CCN(c3cc4cc(NC(=O)C5CC5C5CCOCC5)ncc4cc3Cl)CC2)COCC1O` (single isomer, unassigned) [Ex-10.31, (1R,2R or 1S,2S)-N-[7-chloro-6-[4-((3R,4R or 3S,4S)-4-hydroxy-3-methyl-tetrahydrofuran-3-yl)piperazin-1-yl]-3-isoquinolyl]-2-tetrahydropyran-4-yl-cyclopropanecarboxamide]: the IC50 was 81.3 pM.

In the case of `CC1(c2ccccn2)CC1C(=O)Nc1cc2cc(N3CCN(C4(C)COCC4O)CC3)c(Cl)cc2cn1` (single isomer, unassigned) [Ex-11.1, (1R,2R)(3R,4R)— or (1R,2S)(3R,4R)— or (1S,2R)(3R,4R)— or (1S,2S)(3R,4R)— or (1R,2R)(3S,4S)— or (1R,2S)(3S,4S)— or (1S,2R)(3S,4S)— or (1S,2S)(3S,4S)-N-(7-chloro-6-(4-(4-hydroxy-3-methyltetrahydrofuran-3-yl)piperazin-1-yl)isoquinolin-3-yl)-2-methyl-2-(pyridin-2-yl)cyclopropane-1-carboxamide], the IC50 is 81.3 pM.

On to `CC1(N2CCN(c3cc4cc(NC(=O)C5CC56CCC6)ncc4cc3Cl)CC2)COCC1O` (single isomer, unassigned) [Ex-1.8, (1R or 1S)-N-(7-chloro-6-(4-((3R,4R or 3S,4S)-4-hydroxy-3-methyltetrahydrofuran-3-yl)piperazin-1-yl)isoquinolin-3-yl)spiro[2.3]hexane-1-carboxamide], for which the IC50 is 2340 pM.

On to `O=C(Nc1cc2cc(N3CCN(C4COC4)CC3)c(Cl)cc2cn1)C1CC1` [Ex-8.1, N-(7-chloro-6-(4-(oxetan-3-yl)piperazin-1-yl)isoquinolin-3-yl)cyclopropanecarboxamide], for which the “LRRK2 pIC50” value came to 7.99.

`O=C(Nc1cc2cc(N3C(=O)C4CCC3C4)ccc2cn1)C1CC1` (single isomer, unassigned) [Ex-5.1]: the IC50 was 9550 pM.

Take `Cc1cc2cnc(NC(=O)C3CC34CCOC4)cc2cc1N1CCN(C2(C)COCC2O)CC1` (single isomer, unassigned) [Ex-6.3, (1R, 3S or 1S,3R, or 1R,3S, or 1S,3S)-N-(6-(4-((3R, 4R or 3S,4S)-4-hydroxy-3-methyltetrahydrofuran-3-yl)piperazin-1-yl)-7-methylisoquinolin-3-yl)-5-oxaspiro[2.4]heptane-1-carboxamide]: the IC50 is 832 pM.

As for `CC1(N2CCN(c3cc4cc(NC(=O)C5CC56CCCOC6)ncc4cc3Cl)CC2)COCC1O` (single isomer, unassigned) [Ex-1.15, (1R,3S, or 1R,3R, or 1S,3S, or 1S,3R)-N-(7-chloro-6-(4-((3R,4R or 3S,4S)-4-hydroxy-3-methyltetrahydrofuran-3-yl)piperazin-1-yl)isoquinolin-3-yl)-5-oxaspiro[2.5]octane-1-carboxamide], the IC50 is 46800 pM.

With `CC1(N2CCN(c3cc4cc(NC(=O)C5CC56CC6)ncc4cc3Cl)CC2)COCC1O` (single isomer, unassigned) [Ex-2.15, (R or S)-N-(7-chloro-6-(4-((3R,4R or 3S,4S)-4-hydroxy-3-methyltetrahydrofuran-3-yl)piperazin-1-yl)isoquinolin-3-yl)spiro[2.2]pentane-1-carboxamide], the IC50 is 30200 pM.

In the case of `Cc1cc2cnc(NC(=O)C3CC34CCOC4)cc2cc1N1CCN(C2(C)COCC2O)CC1` (single isomer, unassigned) [Ex-6.9, (1R, 3S or 1S,3R, or 1R,3S, or 1S,3S)-N-(6-(4-((3R, 4R or 3S,4S)-4-hydroxy-3-methyltetrahydrofuran-3-yl)piperazin-1-yl)-7-methylisoquinolin-3-yl)-5-oxaspiro[2.4]heptane-1-carboxamide], the IC50 was 324000 pM.

On to `CCOC1CC1C(=O)Nc1cc2cc(N3CCN(C4(C)COCC4O)CC3)c(Cl)cc2cn1` (single isomer, unassigned) [Ex-10.11], for which the IC50 is 851 pM.

As for `CC1(N2CCN(c3cc4cc(NC(=O)C5CC56CCCOC6)ncc4cc3Cl)CC2)COCC1O` (single isomer, unassigned) [Ex-1.18, (1R,3S, or 1R,3R, or 1S,3S, or 1S,3R)-N-(7-chloro-6-(4-((3R,4R or 3S,4S)-4-hydroxy-3-methyltetrahydrofuran-3-yl)piperazin-1-yl)isoquinolin-3-yl)-5-oxaspiro[2.5]octane-1-carboxamide], the IC50 is 724 pM.

As to `O=C(Nc1cc2cc(N3CCC(N4CC(F)(F)C4)CC3)c(Cl)cc2cn1)C1CC12CCOCC2` (stereo not drawn) [Ex-4.7], the “LRRK2 pIC50” value is 7.93.

Consider `CCC1(N2CCN(c3cc4cc(NC(=O)C5CC56CCOCC6)ncc4cc3C)CC2)COCC1O` (stereo not drawn) [Ex-6.12], for which the “LRRK2 pIC50” value is 9.67.

Turning to `CC1COC(=O)N1c1ccc2cnc(NC(=O)C3CC3)cc2c1` (single isomer, unassigned) [Ex-4.1, (R or S)-N-(6-(4-methyl-2-oxooxazolidin-3-yl)isoquinolin-3-yl)cyclopropanecarboxamide], the IC50 is 3470 pM.

Take `Cn1ccc(C2CC2C(=O)Nc2cc3cc(N4CCN(C5(C)COCC5F)CC4)c(Cl)cc3cn2)n1` (single isomer, unassigned) [Ex-10.18, (1R,2R or 1S,2S)-N-[7-chloro-6-[4-((3R,4R or 3S,4S)-4-fluoro-3-methyl-tetrahydrofuran-3-yl)piperazin-1-yl]-3-isoquinolyl]-2-(1-methylpyrazol-3-yl)cyclopropanecarboxamide]: the IC50 is 8710 pM.
